The target of data set [1] is T1, hCA XII (Homo sapiens, UniProt O43570).
T1 construct: made in house
Description: biochemical. As for the experimental part:
(§1) For this reason, we herein report a 6 h incubation time instead.
(§2) An Applied Photophysics stopped-flow instrument was used for assaying the CA catalyzed CO2 hydration activity. […] The uncatalyzed rates were determined in the same manner and subtracted from the total observed rates. Stock solutions of inhibitor (0.1 mM) were prepared in distilled–deionized water and dilutions up to 0.01 nM were done thereafter with the assay buffer. Inhibitor and enzyme solutions were preincubated together for 6h at room temperature prior to assay, in order to allow for the formation of the E-I complex. The inhibition constants were obtained by non-linear least-squares methods using PRISM 3 and the Cheng–Prusoff equation and represent the mean from at least three different determinations. […] All CA isoforms were recombinant ones obtained in-house.

Data set [2] deals with T2, hCA I (Homo sapiens, UniProt P00915).
T2 construct: made in house
The experiment in a line: stopped-flow CO2 hydrase assay, hCA I inhibition. The class given is biochemical. The note with it: 6 h incubation of enzyme and inhibitor; mean from 3 different assays, errors 5-10%; read-out: KI (nM) CA I. As for the experimental part: as §1, §2

For data set [3], the target named is T3, hCA IX (Homo sapiens, UniProt Q16790).
T3 construct: made in house
Description: stopped-flow CO2 hydrase assay, hCA IX inhibition. The conditions noted are these: 6 h incubation of enzyme and inhibitor; mean from 3 different assays, errors 5-10%; read-out: KI (nM) CA IX. The data set is classed as biochemical. How it is done: as §1, §2

Data set [4] has as its target T4, hCA II (Homo sapiens, UniProt P00918).
T4 construct: made in house
The experiment in a line: stopped-flow CO2 hydrase assay, hCA II inhibition. The class given is biochemical. The note with it: 6 h incubation of enzyme and inhibitor; mean from 3 different assays, errors 5-10%; read-out: KI (nM) CA II. As for the experimental part:
as §1, §2

The mark [5] stands for this setting: 6 h incubation of enzyme and inhibitor, mean from 3 different assays, errors 5-10%, read-out: KI (nM) CA XII.

Each structure is given as a SMILES string. Several values for one entry are separate records, joined by “and”; a condition that tells them apart may be missing. Equal values may be shown once. Read-outs that look alike come from different tables or passages of the source.

T1 sequence (O43570 25-354): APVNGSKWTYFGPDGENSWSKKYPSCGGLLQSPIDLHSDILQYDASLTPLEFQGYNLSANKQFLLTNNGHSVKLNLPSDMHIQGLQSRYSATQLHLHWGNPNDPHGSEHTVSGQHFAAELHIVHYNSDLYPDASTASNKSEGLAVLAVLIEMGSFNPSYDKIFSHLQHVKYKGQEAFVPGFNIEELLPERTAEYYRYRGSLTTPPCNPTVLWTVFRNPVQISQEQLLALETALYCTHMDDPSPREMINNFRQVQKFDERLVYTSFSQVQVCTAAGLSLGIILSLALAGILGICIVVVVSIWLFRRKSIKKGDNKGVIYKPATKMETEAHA
T2 sequence (P00915 whole entry): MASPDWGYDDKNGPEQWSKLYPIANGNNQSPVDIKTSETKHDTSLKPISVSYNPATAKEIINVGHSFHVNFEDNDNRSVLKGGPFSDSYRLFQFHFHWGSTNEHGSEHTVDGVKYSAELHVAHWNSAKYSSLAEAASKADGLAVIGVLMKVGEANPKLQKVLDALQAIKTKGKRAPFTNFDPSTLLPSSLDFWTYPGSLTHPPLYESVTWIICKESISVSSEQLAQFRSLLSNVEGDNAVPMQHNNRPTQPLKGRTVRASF

For the compound `O=C(Nc1cccc(Br)c1)C1=Cc2ccccc2OS1(=O)=O` [Compound 40, N-(3-bromophenyl)benzo[e][1,2]oxathiine-3-carboxamide 2,2-dioxide], the melting point was in the range of 228 to 229 °C. Also, the Ki in data set [1] came to 78300 nM. The Ki in data set [2] is more than 100000 nM. For the same compound, the Ki in data set [3] amounted to 40800 nM. For the same compound, the Ki in data set [4] is more than 100000 nM.
For the compound `O=S1(=O)C=Cc2ccc(OCc3ccccc3)cc2O1` [Compound 13, 7-(Benzyloxy)benzo[e][1,2]oxathiine 2,2-dioxide], the melting point lay within 165 to 167 °C. In addition, the inhibition constant Ki in data set [1] (setting [5]) was found to be 28.3 nM. The Ki in data set [2] was more than 100000 nM. Besides, the inhibition constant (Ki) in data set [3] stood at 55.6 nM.
For `COc1ccc2c(c1)OS(=O)(=O)C(C(=O)Nc1cccc(Br)c1)=C2` [Compound 45, N-(3-bromophenyl)-7-methoxybenzo[e][1,2]oxathiine-3-carboxamide 2,2-dioxide], the melting point lay in the range of 218 to 220 °C. In data set [1], the Ki was determined as 76500 nM. Moreover, in data set [2], the Ki was more than 100000 nM. The Ki in data set [3] came to 64400 nM. Moreover, the Ki in data set [4] was more than 100000 nM.
Turning to `O=[N+]([O-])c1ccc(COc2ccc3c(c2)OS(=O)(=O)c2ccccc2-3)cc1` [Compound 30, 3-((4-nitrobenzyl)oxy)dibenzo[c,e][1,2]oxathiine 6,6-dioxide], the melting point fell in the range of 264 to 266 °C. Further, in data set [1] (setting [5]), the Ki worked out at 1060 nM. The Ki in data set [2] is more than 100000 nM. Moreover, in data set [3], the Ki worked out at 965 nM. Further, in data set [4], the Ki is more than 100000 nM.
For the compound `COc1ccc2c(c1)OS(=O)(=O)C(C(=O)O)=C2` [Compound 37, 7-methoxybenzo[e][1,2]oxathiine-3-carboxylic acid 2,2-dioxide], the melting point lay within 150 to 151 °C. Affinity in data set [1] was put at a Ki of 408 nM. For the same compound, the Ki in data set [2] came out at 7140 nM. In data set [3], the Ki is 854 nM. Also, in data set [4], the Ki was found to be 728 nM.
Taken in the same sequence, the figures for `COc1ccc2c(c1)OS(=O)(=O)C(C(=O)Nc1ccccc1)=C2` [Compound 43, 7-methoxy-N-phenylbenzo[e][1,2]oxathiine-3-carboxamide 2,2-dioxide] were 241 to 244 °C, 1590 nM, more than 100000 nM, 2430 nM and more than 100000 nM.
For the compound `O=S1(=O)C=Cc2ccc(O)cc2O1` [Compound 11, 7-Hydroxybenzo[e][1,2]oxathiine 2,2-dioxide], the melting point lay in the range of 157 to 159 °C. Moreover, the Ki in data set [1] (setting [5]) was found to be 42.5 nM. Further, the inhibition constant (Ki) in data set [2] stood at 16500 nM. In addition, the Ki in data set [3] turned out to be 55.8 nM.
`O=S1(=O)Oc2cc(OCc3cccc(F)c3)ccc2-c2ccccc21` [Compound 29, 3-((3-fluorobenzyl)oxy)dibenzo[c,e][1,2]oxathiine 6,6-dioxide] returned a melting point of 249 to 252 °C. The Ki in data set [1] (setting [5]) turned out to be 566 nM. For the same compound, the Ki in data set [2] was more than 100000 nM. The Ki in data set [3] stood at 615 nM. In data set [4], the Ki was more than 100000 nM.
On to `O=C(Nc1ccccc1)C1=Cc2ccccc2OS1(=O)=O` [Compound 38, N-phenylbenzo[e][1,2]oxathiine-3-carboxamide 2,2-dioxide], for which the melting point lay within 192 to 195 °C. Affinity in data set [1] was put at a Ki of 2300 nM. In addition, the Ki in data set [2] is more than 100000 nM. Further, in data set [3], the Ki stood at 3290 nM. In data set [4], the Ki is more than 100000 nM.
Compound `COc1cccc(NC(=O)C2=Cc3ccccc3OS2(=O)=O)c1` [Compound 42, N-(3-methoxyphenyl)benzo[e][1,2]oxathiine-3-carboxamide 2,2-dioxide] had a melting point of 219 to 221 °C. In data set [1], this compound showed a Ki of 3380 nM. Further, the Ki in data set [2] was more than 100000 nM. Moreover, the Ki in data set [3] was 5420 nM. The Ki in data set [4] was more than 100000 nM.
Consider `COc1ccc2c(c1)OS(=O)(=O)C=C2C` [Compound 10, 7-Methoxy-4-methylbenzo[e][1,2]oxathiine 2,2-dioxide], for which the melting point was 151 to 153 °C. Further, the Ki in data set [1] (setting [5]) came to 73.9 nM. Moreover, the inhibition constant Ki in data set [2] is more than 100000 nM. In data set [3], the Ki was determined as 97.2 nM. In data set [4], the Ki came to 8810 nM.
In the case of `O=[N+]([O-])c1ccc(COc2ccc3c(c2)OS(=O)(=O)C=C3)cc1` [Compound 16, 7-((4-Nitrobenzyl)oxy)benzo[e][1,2]oxathiine 2,2-dioxide], the melting point was in the range of 215 to 217 °C. Besides, the inhibition constant (Ki) in data set [1] (setting [5]) was found to be 94.7 nM. Moreover, the Ki in data set [2] was more than 100000 nM. Besides, in data set [3], the Ki is 68.9 nM and 69.8 nM. In data set [4], the Ki is more than 100000 nM.
Turning to `CC1=CS(=O)(=O)Oc2cc(OCc3ccc(F)cc3)ccc21` [Compound 19, 7-((4-fluorobenzyl)oxy)-4-methylbenzo[e][1,2]oxathiine 2,2-dioxide], the melting point lay within 195 to 198 °C. In addition, the Ki in data set [1] (setting [5]) turned out to be 41.7 nM. Also, the inhibitory constant (Ki) in data set [2] is more than 100000 nM. Further, the Ki in data set [3] worked out at 14.3 nM. Moreover, the Ki in data set [4] was more than 100000 nM.
Consider `O=C(O)C1=Cc2ccccc2OS1(=O)=O` [Compound 36, benzo[e][1,2]oxathiine-3-carboxylic acid 2,2-dioxide], for which the melting point was in the range of 105 to 107 °C. Further, in data set [1], the Ki was 564 nM. Further, the Ki in data set [2] worked out at 4620 nM. Besides, the Ki in data set [3] worked out at 500 nM. In addition, the Ki in data set [4] came to 996 nM.
In turn, `COc1ccc2c(c1)OS(=O)(=O)C=C2` [Compound 9, 7-Methoxybenzo[e][1,2]oxathiine 2,2-dioxide] displayed a melting point of 111 to 112 °C. Also, the Ki in data set [1] (setting [5]) was 61.4 nM. Moreover, in data set [2], the Ki was more than 100000 nM. Besides, the Ki in data set [3] was 74.9 nM.
As to `COc1cccc(NC(=O)C2=Cc3ccc(OC)cc3OS2(=O)=O)c1` [Compound 47, N-(3-methoxyphenyl)-7-methoxybenzo[e][1,2]oxathiine-3-carboxamide 2,2-dioxide], the melting point lay within 222 to 225 °C. In data set [1], affinity was put at a Ki of 2470 nM. Also, in data set [2], the Ki was more than 100000 nM. The Ki in data set [3] is 6560 nM. Also, in data set [4], the Ki is more than 100000 nM.
The compound `CC1=CS(=O)(=O)Oc2cc(OCc3ccccc3)ccc21` [Compound 18, 7-(benzyloxy)-4-methylbenzo[e][1,2]oxathiine 2,2-dioxide] came in with a melting point of 174 to 175 °C. Further, in data set [1] (setting [5]), the Ki stood at 8.6 nM. In addition, the Ki in data set [2] is more than 100000 nM. Further, the Ki in data set [3] is 49.8 nM. For the same compound, the Ki in data set [4] is more than 100000 nM.
Consider `O=C(Nc1ccc(Br)cc1)C1=Cc2ccccc2OS1(=O)=O` [Compound 39, N-(4-bromophenyl)benzo[e][1,2]oxathiine-3-carboxamide 2,2-dioxide], for which the melting point lay in the range of 249 to 252 °C. Affinity in data set [1] was put at a Ki of 59000 nM. In addition, the Ki in data set [2] is more than 100000 nM. The Ki in data set [3] turned out to be 34300 nM. In data set [4], the Ki is more than 100000 nM.
On to `O=[N+]([O-])c1cccc(COc2ccc3c(c2)OS(=O)(=O)C=C3)c1` [Compound 17, 7-((3-nitrobenzyl)oxy)benzo[e][1,2]oxathiine 2,2-dioxide], for which the melting point lay within 200 to 202 °C. Also, the Ki in data set [1] (setting [5]) was found to be 77.5 nM. For the same compound, in data set [2], the Ki is more than 100000 nM. In data set [3], the Ki amounted to 40.2 nM. Also, the Ki in data set [4] was more than 100000 nM.
The compound `CC1=CS(=O)(=O)Oc2cc(OCc3ccc([N+](=O)[O-])cc3)ccc21` [Compound 21, 7-((4-nitrobenzyl)oxy)-4-methylbenzo[e][1,2]oxathiine 2,2-dioxide] came in with a melting point of 247 to 249 °C. The Ki in data set [1] (setting [5]) was determined as 101 nM. Moreover, in data set [2], the Ki is more than 100000 nM. Further, the Ki in data set [3] was 89.7 nM. Further, the inhibitory constant (Ki) in data set [4] is more than 100000 nM.
On to `CCOC(=O)C1=Cc2ccccc2OS1(=O)=O` [Compound 34, ethyl benzo[e][1,2]oxathiine-3-carboxylate 2,2-dioxide], for which the melting point is 111 to 113 °C. Further, in data set [1], the Ki amounted to 2590 nM. Also, the Ki in data set [2] is more than 100000 nM. The Ki in data set [3] stood at 1630 nM. In data set [4], the Ki was more than 100000 nM.
Turning to `O=S1(=O)Oc2cc(OCc3ccc(F)cc3)ccc2-c2ccccc21` [Compound 28, 3-((4-fluorobenzyl)oxy)dibenzo[c,e][1,2]oxathiine 6,6-dioxide], the melting point fell in the range of 268 to 269 °C. For the same compound, the Ki in data set [1] (setting [5]) came to 654 nM. In data set [2], the Ki is more than 100000 nM. Also, the Ki in data set [3] came to 755 nM. Also, the Ki in data set [4] is more than 100000 nM.
As for `O=S1(=O)Oc2cc(O)ccc2-c2ccccc21` [Compound 26, 3-Hydroxydibenzo[c,e][1,2]oxathiine 6,6-dioxide], the melting point was in the range of 181 to 182 °C. The inhibition constant Ki in data set [1] (setting [5]) came to 414 nM. Besides, the Ki in data set [2] was determined as 42600 nM. The Ki in data set [3] is 559 nM. The Ki in data set [4] was determined as 9000 nM.
Taken in the same sequence, the figures for `CC1=CS(=O)(=O)Oc2cc(OCc3cccc(F)c3)ccc21` [Compound 20, 7-((3-fluorobenzyl)oxy)-4-methylbenzo[e][1,2]oxathiine 2,2-dioxide] were 214 to 215 °C, 25.7 nM, more than 100000 nM, 33.2 nM and more than 100000 nM.
`O=S1(=O)C=Cc2ccc(OCc3cccc(F)c3)cc2O1` [Compound 15, 7-((3-Fluorobenzyl)oxy)benzo[e][1,2]oxathiine 2,2-dioxide] had a melting point of 180 to 183 °C. In data set [1] (setting [5]), the Ki is 46 nM. The Ki in data set [2] is more than 100000 nM. Further, the Ki in data set [3] amounted to 28.4 nM. For the same compound, the Ki in data set [4] is more than 100000 nM.

The record behind these values is publication PMC9267968, “Continued Structural Exploration of Sulfocoumarin as Selective Inhibitor of Tumor-Associated Human Carbonic Anhydrases IX and XII” (Molecules, 2022).
